According to patent US8278436B2, “Glycosylated warfarin analogs and uses thereof” (priority 2008, dated 2012):
Read-outs that look alike come from different tables or passages of the source.

Columns and labels:
Format in all cases: cell-based
NCI/ADR-RES = experiment: cell proliferation assay, NCI/ADR-RES; settings: Table 3 summary of most active compounds
Method: (§1) All cell lines were maintained as previously reported (see Langenhan, J. M.; Peters, N. R.; Guzei, I. A.; Hoffmann, F. M.; Thorson, J. S. Proc. Natl. Acad. Sci. USA 2005, 102, 12305-12310, which is incorporated by reference herein). Cells were harvested using 0.25% trypsin and 0.1% EDTA and counted in a Cellometer Auto T4 cell counter (Nexcelom, Inc.) prior to dilution for assay plating. Cells were plated at a denity of 500 cells per well in 50 μL volumes in 384-well clear-bottom tissue culture plates (Corning-Costar, Inc.).
(§2) Compounds were added from the 384-well compound stock plates at a 1:100 dilution using a Biomek FX liquid handler equipped with a 384-channel head (Beckman Coulter, Inc.). The plates were incubated for 7 days at 37° C. in a 5% CO2 atmosphere prior to performing the assays. Calcein AM (acetoxymethyl ester) reagent and EthD-1 (30 μL, 10 μM CAM and 100 μM EthD-1) was added and the cells were incubated for 30 min at 37° C. […] resulting from incubation with Calcein AM and EthD-1 was read using a Safire-2 microplate reader at the appropriate wavelengths. To lyse the cells, 15 μL of CellTiter-Glo reagent (Promega Corporation, Inc.) was added and the cells were incubated for 10 min at room temperature with gentle agitation. The luminescence of each plate was re-read to confirm the observed inhibition.
(§3) IC50s for cell proliferation assays were determined for Calcein AM, the ratio of live/dead cells (Calcein AM/EthD-1), and CellTiter-Glo using XLfit 4.0 as previously described (see Langenhan, J. M.; Peters, N. R.; Guzei, I. A.; Hoffmann, F. M.; Thorson, J. S. Proc. Natl. Acad. Sci. USA 2005, 102, 12305-12310, which is incorporated by reference herein). The IC50 determined using the best fit curve for dosage response from any of the 3 assays is reported as the final IC50.

[1] = tested on: HCT-15 human colorectal adenocarcinoma cells; experiment: cell proliferation assay, HCT-15; settings: for IC50: Table 3 summary of most active compounds, read-out: HCT15 Colorectal
From the text: (§4) In this Example, the warfarin neoglycosides of the invention were screened for anti-tumor activity in cell proliferation assays using the following tumor cells lines: A549—human lung adenocarcinoma; H1299—human lung adenocarcinoma (p53 null); HCT-15—human colorectal adenocarcinoma; HT-29—human colorectal adenocarcinoma; MCF7—human breast adenocarcinoma; NCI-H460—human lung adenocarcinoma; SF-268—human CNS adenocarcinoma; and SKOV-3—human ovarian adenocarcinoma.
as §1, §2
as §3, with “IC50. The best fit curve is defined as the curve with the lowest standard error.” for “IC50.”

[2] = tested on: HT-29 human colorectal adenocarcinoma cells; experiment: cell proliferation assay, HT-29
From the text: as §4, §1, §2
as §3, with “IC50. The best fit curve is defined as the curve with the lowest standard error.” for “IC50.”

[3] = tested on: A549 human lung adenocarcinoma cells; experiment: cell proliferation assay, A549; settings: read-out: A549 Lung (+p53)
From the text: as §4, §1, §2
as §3, with “IC50. The best fit curve is defined as the curve with the lowest standard error.” for “IC50.”

[4] = tested on: SF-268 human CNS adenocarcinoma cells; experiment: cell proliferation assay, SF-268
From the text: as §4, §1, §2, §3

[5] = tested on: SKOV-3 human ovarian adenocarcinoma cells; experiment: cell proliferation assay, SKOV-3; settings: read-out: SKOV3 Ovarian
From the text: as §4, §1, §2
as §3, with “IC50. The best fit curve is defined as the curve with the lowest standard error.” for “IC50.”

[6] = tested on: MCF7 human breast adenocarcinoma cells; experiment: cell proliferation assay, MCF7
From the text: as §4, §1, §2, §3

[7] = tested on: NCI-H460 human lung adenocarcinoma cells; experiment: cell proliferation assay, NCI-H460
From the text: as §4, §1, §2
as §3, with “IC50. The best fit curve is defined as the curve with the lowest standard error.” for “IC50.”

[8] = tested on: H1299 human lung adenocarcinoma (p53 null) cells; experiment: cell proliferation assay, H1299
From the text: as §4, §1, §2, §3

[9] = Table 3 summary of most active compounds, IC50, read-out: H729 Colorectal
[10] = Table 3 summary of most active compounds
[11] = Table 3 summary of most active compounds, IC50, read-out: SF268 Giloblast
[12] = Table 3 summary of most active compounds, listed as D-xylose
[13] = Homo sapiens, HT-29, read-out: H729 Colorectal
[14] = Homo sapiens, A549, Table 3 summary of most active compounds
[15] = Homo sapiens, SF-268, read-out: SF268 Giloblast
[16] = Homo sapiens, SK-OV-3, Table 3 summary of most active compounds
[17] = Homo sapiens, MCF7, Table 3 summary of most active compounds
[18] = Homo sapiens, NCI-H460, Table 3 summary of most active compounds
[19] = Table 3 summary of most active compounds, listed as L-arabinose
[20] = Table 3 summary of most active compounds, listed as L-xylose
[21] = Table 3 summary of most active compounds, listed as D-ribose
[22] = Table 3 summary of most active compounds, listed as L-ribose
[23] = Table 3 summary of most active compounds, listed as D-lyxose

CON(C(C)CC(c1ccccc1)c1c(O)c2ccccc2oc1=O)C1C[C@@H](O)[C@@H](O)CO1 (some centres unmarked) [WARF Analog 10]
IC50 (NCI/ADR-RES): 92 µM
IC50 [1]: 12 µM
IC50 [2, 9]: 88 µM
IC50 [3, 10]: > 100 µM
IC50 [4, 11]: > 100 µM
IC50 [5, 10]: > 100 µM
IC50 [6, 10]: 66 µM
IC50 [7, 10]: > 100 µM
IC50 [8, 10]: 77 µM

CON(C(C)CC(c1ccccc1)c1c(O)c2ccccc2oc1=O)C1OCC(O)C(O)C1O (mixture of isomers) [WARF Analog 9]
IC50 (NCI/ADR-RES; listed as D-xylose): 38 µM
IC50 ([1]; listed as D-xylose): 11 µM
IC50 ([2]; Table 3 summary of most active compounds, IC50, listed as D-xylose, read-out: H729 Colorectal): 43 µM
IC50 [3, 12]: 40 µM
IC50 ([4]; Table 3 summary of most active compounds, IC50, listed as D-xylose, read-out: SF268 Giloblast): 37 µM
IC50 [5, 12]: 52 µM
IC50 [6, 12]: 12 µM
IC50 [7, 12]: 99 µM
IC50 [8, 12]: 27 µM

CONC(C)CC(c1ccccc1)c1c(O)c2ccccc2oc1=O (centres unmarked) [WARF Analog C, 4-hydroxy-3-(3-(methoxyamino)-1-phenylbutyl)-2H-1-benzopyran-2-one]
IC50 (NCI/ADR-RES; Homo sapiens): > 100 µM
IC50 ([1]; Homo sapiens, HCT-15): > 100 µM
IC50 [2, 13]: > 100 µM
IC50 [3, 14]: > 100 µM
IC50 [4, 15]: > 100 µM
IC50 [5, 16]: > 100 µM
IC50 [6, 17]: > 100 µM
IC50 [7, 18]: > 100 µM
IC50 ([8]; Homo sapiens, NCI-H1299, Table 3 summary of most active compounds): > 100 µM

CON(C(C)CC(c1ccccc1)c1c(O)c2ccccc2oc1=O)C1O[C@H](COCc2ccccc2)[C@@H](OCc2ccccc2)[C@@H]1OCc1ccccc1 (some centres unmarked) [WARF Analog 42]
IC50 (NCI/ADR-RES): 20 µM
IC50 [1]: 11 µM
IC50 [2, 9]: 19 µM
IC50 [3, 10]: 27 µM
IC50 [4, 11]: 20 µM
IC50 [5, 10]: 27 µM
IC50 [6, 10]: 29 µM
IC50 [8, 10]: 19 µM

CC(=O)CC(c1ccccc1)c1c(O)c2ccccc2oc1=O (centres unmarked) [WARF Analog A, 4-hydroxy-3-(3-oxo-1-phenylbutyl)-2H-1-benzopyran-2-one, reference compound]
IC50 (NCI/ADR-RES; Homo sapiens): > 100 µM
IC50 ([1]; Homo sapiens, HCT-15): 543 µM
IC50 [2, 13]: 735 µM
IC50 [3, 14]: 781 µM
IC50 [4, 15]: 765 µM
IC50 [5, 16]: 393 µM
IC50 [6, 17]: 301 µM
IC50 [7, 18]: 557 µM

CON(C(C)CC(c1ccccc1)c1c(O)c2ccccc2oc1=O)C1OCC(O)C(O)C1O (mixture of isomers) [WARF Analog 15]
IC50 (NCI/ADR-RES; listed as L-arabinose): 68 µM
IC50 ([1]; listed as L-arabinose): 49 µM
IC50 ([2]; Table 3 summary of most active compounds, IC50, listed as L-arabinose, read-out: H729 Colorectal): 97 µM
IC50 [3, 19]: 48 µM
IC50 ([4]; Table 3 summary of most active compounds, IC50, listed as L-arabinose, read-out: SF268 Giloblast): 69 µM
IC50 [5, 19]: 76 µM
IC50 [6, 19]: 79 µM
IC50 [7, 19]: > 100 µM
IC50 [8, 19]: 51 µM

CON(C(C)CC(c1ccccc1)c1c(O)c2ccccc2oc1=O)C1OCC(O)C(O)C1O (mixture of isomers) [WARF Analog 1]
IC50 (NCI/ADR-RES; listed as L-xylose): 50 µM
IC50 ([1]; listed as L-xylose): 14 µM
IC50 ([2]; Table 3 summary of most active compounds, IC50, listed as L-xylose, read-out: H729 Colorectal): 37 µM
IC50 [3, 20]: 67 µM
IC50 [5, 20]: 45 µM
IC50 [6, 20]: 15 µM
IC50 [7, 20]: > 100 µM
IC50 [8, 20]: 30 µM

CON(C(C)CC(c1ccccc1)c1c(O)c2ccccc2oc1=O)C1OC(C)C(O)C(O)C1O (mixture of isomers) [WARF Analog 50]
IC50 (NCI/ADR-RES): > 100 µM
IC50 ([1]; listed as 6-deoxy-D-glucose): 14 µM
IC50 ([2]; Table 3 summary of most active compounds, IC50, listed as 6-deoxy-D-glucose, read-out: H729 Colorectal): > 100 µM
IC50 [3, 10]: > 100 µM
IC50 ([4]; Table 3 summary of most active compounds, IC50, listed as 6-deoxy-D-glucose, read-out: SF268 Giloblast): > 100 µM
IC50 ([5]; Table 3 summary of most active compounds, listed as 6-deoxy-D-glucose): > 100 µM
IC50 [7, 10]: > 100 µM

CON(C(C)CC(c1ccccc1)c1c(O)c2ccccc2oc1=O)C1OCC(O)C(O)C1O (mixture of isomers) [WARF Analog 22]
IC50 (NCI/ADR-RES; listed as D-ribose): 66 µM
IC50 ([1]; listed as D-ribose): 27 µM
IC50 ([2]; Table 3 summary of most active compounds, IC50, listed as D-ribose, read-out: H729 Colorectal): 77 µM
IC50 [3, 21]: > 100 µM
IC50 ([4]; Table 3 summary of most active compounds, IC50, listed as D-ribose, read-out: SF268 Giloblast): 72 µM
IC50 [5, 21]: 60 µM
IC50 [6, 21]: 41 µM
IC50 [7, 21]: > 100 µM
IC50 [8, 21]: 44 µM

CON(C(C)CC(c1ccccc1)c1c(O)c2ccccc2oc1=O)C1CC(C)(O)C(O)C(C)O1 (mixture of isomers) [WARF Analog 37]
IC50 (NCI/ADR-RES): > 100 µM
IC50 [1]: 16 µM
IC50 [2, 9]: > 100 µM
IC50 [3, 10]: > 100 µM
IC50 [4, 11]: > 100 µM
IC50 [5, 10]: > 100 µM
IC50 [6, 10]: > 100 µM
IC50 [7, 10]: > 100 µM
IC50 [8, 10]: > 100 µM

CON(C(C)CC(c1ccccc1)c1c(O)c2ccccc2oc1=O)C1OCC(O)C(O)C1O (mixture of isomers) [WARF Analog 25]
IC50 (NCI/ADR-RES; listed as L-ribose): 62 µM
IC50 ([1]; listed as L-ribose): 37 µM
IC50 ([2]; Table 3 summary of most active compounds, IC50, listed as L-ribose, read-out: H729 Colorectal): 72 µM
IC50 [3, 22]: 72 µM
IC50 ([4]; Table 3 summary of most active compounds, IC50, listed as L-ribose, read-out: SF268 Giloblast): > 100 µM
IC50 [5, 22]: 60 µM
IC50 [6, 22]: 45 µM
IC50 [7, 22]: > 100 µM

CON(C(C)CC(c1ccccc1)c1c(O)c2ccccc2oc1=O)C1OCC(O)C(O)C1O (mixture of isomers) [WARF Analog 6]
IC50 (NCI/ADR-RES; listed as D-lyxose): 57 µM
level of activity, in words ([1]; HCT 15 colorectal cell lines, compared with all the neoglycosides tested): highest level of activity
IC50 ([1]; listed as D-lyxose): 7 µM
IC50 ([2]; Table 3 summary of most active compounds, IC50, listed as D-lyxose, read-out: H729 Colorectal): 52 µM
IC50 [3, 23]: 76 µM
IC50 ([4]; Table 3 summary of most active compounds, IC50, listed as D-lyxose, read-out: SF268 Giloblast): 39 µM
IC50 [5, 23]: 47 µM
IC50 [7, 23]: > 100 µM
